Molecular target: human recombinant H-PGDS (Homo sapiens, UniProt O60760)
Assay: Fluorescence Intensity h-PGDS TBA Enzyme Assay
Assay type: biochemical
Settings: 1:175,000 human recombinant H-PGDS, highest inhibitor concentration typically 1 μM
In short: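 Recombinant human H-PGDS preincubated 10 min at room temperature with inhibitor in 100 mM Tris pH 8.0, 100 μM MgCl2, 2.5 mM glutathione, 0.5% DMSO; 5.0 μM PGH2 added, stopped after 42 s with FeCl2/citric acid. Remaining PGH2 measured as MDA–TBA fluorescence (ex 530/em 565 nm); IC50 by 4-parameter fit, 11 concentrations.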

human recombinant H-PGDS, sequence (O60760 whole entry): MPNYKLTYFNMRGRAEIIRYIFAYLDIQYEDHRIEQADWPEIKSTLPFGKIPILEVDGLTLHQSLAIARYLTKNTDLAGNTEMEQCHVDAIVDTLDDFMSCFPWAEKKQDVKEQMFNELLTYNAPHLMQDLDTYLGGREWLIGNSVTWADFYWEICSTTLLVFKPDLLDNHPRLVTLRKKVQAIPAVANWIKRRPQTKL

| Structure (SMILES) | IC50 [µM] |
| --- | --- |
| Cc1ccc(CNC(=O)c2ccc(-c3cccc(F)c3)nc2)cc1 [Example 404, 6-(3-Fluorophenyl)-N-(4-methylbenzyl)nicotinamide] | 0.0174 |
| O=C(NCCCN1CCCC1=O)c1ccc(-c2cccc(F)c2)nc1 [Example 156, 6-(3-Fluorophenyl)-N-[3-(2-oxopyrrolidin-1-yl)propyl]nicotinamide] | 0.0157 |
| CCOC(=O)CC[C@@H](NC(=O)c1ccc(-c2cccc(F)c2)nc1)C(=O)OCC [Example 166, Diethyl N-{[6-(3-fluorophenyl)pyridin-3-yl]carbonyl}-D-glutamate] | 0.00257 |
| O=C(NCc1ccc[nH]c1=O)c1ccc(-c2cccc(F)c2)nc1 [Example 13, 6-(3-Fluorophenyl)-N-[(2-oxo-1,2-dihydropyridin-3-yl)methyl]nicotinamide] | 0.0204 |
| CCCOCCCNC(=O)c1cnc(-c2cccc(F)c2)c(Cl)c1 [Example 550, 5-Chloro-6-(3-fluorophenyl)-N-(3-propoxypropyl)nicotinamide] | 0.0304 |
| O=C(NCc1nncn1C1CCCCC1)c1ccc(-c2cccc(F)c2)nc1 [Example 99, N-[(4-Cyclohexyl-4H-1,2,4-triazol-3-yl)methyl]-6-(3-fluorophenyl)nicotinamide] | 0.0315 |
| O=C(CNC(=O)c1ccc(-c2cccc(F)c2)nc1)OCc1ccccc1 [Example 418, Benzyl N-{[6-(3-fluorophenyl)pyridin-3-yl]carbonyl}glycinate] | 0.0961 |
| O=C(NCc1ccc(F)cc1)c1ccc(-c2ccc(F)cc2)nc1 [Example 482, N-(4-Fluorobenzyl)-6-(4-fluorophenyl)nicotinamide] | 0.527 |
| CCOC(=O)CCCCCNC(=O)c1ccc(-c2cccc(F)c2)nc1 [Example 137, Ethyl 6-({[6-(3-fluorophenyl)pyridin-3-yl]carbonyl}amino)hexanoate] | 0.0112 |
| O=C(NCCc1ccncc1)c1ccc(-c2ccccc2)nc1 [Example 356, 6-Phenyl-N-(2-pyridin-4-ylethyl)nicotinamide] | 0.0116 |
| O=C(NCCc1cccs1)c1ccc(-c2ccccc2)nc1 [Example 363, 6-Phenyl-N-[2-(2-thienyl)ethyl]nicotinamide] | 0.0051 |
| CN(C)CC(C)(C)CNC(=O)c1ccc(-c2ccccc2)nc1 [Example 352, N-[3-(Dimethylamino)-2,2-dimethylpropyl]-6-phenylnicotinamide] | 0.458 |
| CCC1CCN(CCNC(=O)c2ccc(-c3cccc(F)c3)nc2)CC1 [Example 188, N-[2-(4-Ethylpiperidin-1-yl)ethyl]-6-(3-fluorophenyl)nicotinamide] | 0.0163 |
| CCOC(=O)CC[C@H](NC(=O)c1ccc(-c2cccc(F)c2)nc1)C(=O)OCC [Example 27, Diethyl N-{[6-(3-fluorophenyl)pyridin-3-yl]carbonyl}-L-glutamate] | 0.00429 |
| CC(=O)N1CCC(CNC(=O)c2ccc(-c3ccc(F)cc3)nc2)CC1 [Example 257, N-[(1-Acetylpiperidin-4-yl)methyl]-6-(4-fluorophenyl)nicotinamide] | 0.777 |
| COc1cccc(-c2ccc(C(=O)NC(=O)[C@@H](N)C(C)C)cn2)c1 [Example 287, 6-(3-Methoxyphenyl)-N-L-valylnicotinamide] | 0.816 |
| CCOC(=O)CC(NC(=O)c1ccc(-c2cccc(F)c2)nc1)c1ccccc1 (stereo not drawn) [Example 406, Ethyl 3-({[6-(3-fluorophenyl)pyridin-3-yl]carbonyl}amino)-3-phenylpropanoate] | 0.101 |
| CC(C)c1noc(CNC(=O)c2ccc(-c3cccc(F)c3)nc2)n1 [Example 83, 6-(3-Fluorophenyl)-N-[(3-isopropyl-1,2,4-oxadiazol-5-yl)methyl]nicotinamide] | 0.0728 |
| CS(=O)(=O)c1ccc(CNC(=O)c2ccc(-c3ccc(F)cc3)nc2)cc1 [Example 504, 6-(4-Fluorophenyl)-N-[4-(methylsulfonyl)benzyl] nicotinamide] | 0.687 |
| CCC1CCN(CCNC(=O)c2ccc(-c3cccc(C)c3)nc2)CC1 [Example 235, N-[2-(4-Ethylpiperidin-1-yl)ethyl]-6-(3-methylphenyl)nicotinamide] | 0.0388 |
| COc1cc(CNC(=O)c2cnc(-c3cccc(F)c3)c(Cl)c2)cc2c1OCCO2 [Example 548, 5-Chloro-6-(3-fluorophenyl)-N-[(8-methoxy-2,3-dihydro-1,4-benzodioxin-6-yl)methyl]nicotinamide] | 0.0547 |

| Structure (SMILES) | IC50 [µM] |
| --- | --- |
| O=C(NCc1ccc(C(F)(F)F)cc1)c1ccc(-c2cccc(F)c2)nc1 [Example 409, 6-(3-Fluorophenyl)-N-[4-(trifluoromethyl)benzyl] nicotinamide] | 0.233 |
| CCOC(=O)CC(NC(=O)c1ccc(-c2cccc(F)c2)nc1)c1ccc(Cl)cc1 (stereo not drawn) [Example 407, Ethyl 3-(4-chlorophenyl)-3-({[6-(3-fluorophenyl)pyridin-3-yl]carbonyl}amino)propanoate] | 0.149 |
| CNS(=O)(=O)c1ccc(CNC(=O)c2ccc(-c3cccc(F)c3)nc2)cc1 [Example 424, 6-(3-Fluorophenyl)-N-{4-[(methylamino)sulfonyl]benzyl}nicotinamide] | 0.0678 |
| CCOC(=O)CC(NC(=O)c1ccc(-c2cccc(C)c2)nc1)c1ccc(Cl)cc1 (stereo not drawn) [Example 221, Ethyl 3-(4-chlorophenyl)-3-({[6-(3-methylphenyl)pyridin-3-yl]carbonyl}amino)propanoate] | 0.0559 |
| CCOC(=O)CC(NC(=O)c1ccc(-c2cccc(OC)c2)nc1)c1ccc(Cl)cc1 (stereo not drawn) [Example 334, Ethyl 3-(4-chlorophenyl)-3-({[6-(3-methoxyphenyl)pyridin-3-yl]cabonyl}amino)propanoate] | ≥ 1 |
| CCOC(=O)CC(NC(=O)c1ccc(-c2cccc(OC)c2)nc1)c1ccc(OC)cc1 (stereo not drawn) [Example 294, Ethyl 3-(4-methoxyphenyl)-3-({[6-(3-methoxyphenyl)pryidin-3-yl]carbonyl}amino) propanoate] | 0.191 |
| CC(=O)N1CCC(CNC(=O)c2ccc(-c3cccc(F)c3)nc2)CC1 [Example 178, N-[(1-Acetylpiperidin-4-yl)methyl]-6-(3-fluorophenyl)nicotinamide] | 0.00688 |
| COc1cccc(-c2ccc(C(=O)NCc3cccc(S(C)(=O)=O)c3)cn2)c1 [Example 292, 6-(3-Methoxyphenyl)-N-[3-(methylsulfonyl)benzyl] nicotinamide] | 0.215 |
| COC(=O)CC(NC(=O)c1ccc(-c2cccc(F)c2)nc1)c1cccnc1 (stereo not drawn) [Example 171, Methyl 3-({[6-(3-fluorophenyl)pyridin-3-yl]carbonyl}amino)-3-pyridin-3-ylpropanoate] | 0.0527 |
| Cc1cccc(-c2ccc(C(=O)NCC3CCCCO3)cn2)c1 (stereo not drawn) [Example 239, 6-(3-Methylphenyl)-N-(tetrahydro-2H-pyran-2-ylmethyl)nicotinamide] | 0.0676 |
| COc1cccc(OCC(O)CNC(=O)c2ccc(-c3cccc(F)c3)nc2)c1 (stereo not drawn) [Example 49, 6-(3-Fluorophenyl)-N-[2-hydroxy-3-(3-methoxyphenoxy)propyl] nicotinamide] | 0.0108 |
| Cc1cccc(-c2ccc(C(=O)NCc3ccc(C(F)(F)F)cc3)cn2)c1 [Example 454, 6-(3-Methylphenyl)-N-[4-(trifluoromethyl)benzyl] nicotinamide] | 0.149 |
| CCCCNC(=O)c1ccc(-c2cccc(F)c2)nc1 [Example 415, N-Butyl-6-(3-fluorophenyl)nicotinamide] | 0.0245 |
| O=C(NCCN1CCC(O)CC1)c1ccc(-c2cccc(F)c2)nc1 [Example 32, 6-(3-Fluorophenyl)-N-[2-(4-hydroxypiperidin-1-yl)ethyl]nicotinamide] | 0.0311 |
| CC(O)CNC(=O)c1ccc(-c2ccccc2)nc1 (stereo not drawn) [Example 390, N-(2-Hydroxypropyl)-6-phenylnicotinamide] | 0.013 |
| COc1cccc(-c2ccc(C(=O)NC(C)c3ccncn3)cn2)c1 (stereo not drawn) [Example 299, 6-(3-Methoxyphenyl)-N-(1-pyrimidin-4-ylethyl)nicotinamide] | 0.578 |
| COC(=O)CC(NC(=O)c1ccc(-c2ccccc2)nc1)c1cccnc1 (stereo not drawn) [Example 370, Methyl 3-{[(6-phenylpyridin-3-yl)carbonyl]amino}-3-pyridin-3-ylpropanoate] | 0.0329 |
| Cc1cccc(-c2ccc(C(=O)NCCCNc3ccccn3)cn2)c1 [Example 231, 6-(3-Methylphenyl)-N-[3-(pyridin-2-ylamino)propyl]nicotinamide] | 0.00786 |
| O=C(NCCN1CCCC(O)C1)c1ccc(-c2cccc(F)c2)nc1 (stereo not drawn) [Example 47, 6-(3-Fluorophenyl)-N-[2-(3-hydroxypiperidin-1-yl)ethyl]nicotinamide] | 0.0217 |
| CCCCNC(=O)c1ccc(-c2ccc(F)cc2)nc1 [Example 326, N-Butyl-6-(4-fluorophenyl)nicotinamide] | 0.414 |
| COC(=O)[C@H](Cc1ccc(Cl)cc1)NC(=O)c1ccc(-c2cccc(OC)c2)nc1 [Example 306, Methyl 4-chloro-N-{[6-(3-methoxyphenyl)pyridin-3-yl]carbonyl}phenylalaninate] | 0.387 |
